Earlier results as cited in patent US20230255891A1, “Highly Compactable and Durable Direct Compression Excipients and Excipient Systems” (SPI Pharma, Inc., priority 2009, published 2023).

Legend:
[1] = in water at 25
[2] = for 80° C. Solubility Kilos/100 Kilo solution: spray liquid temperature; for solubility in water: at 80 C in solution

Solubility At 25 (g/100 g H2O) [1]	80° C. Solubility Kilos/100 Kilo solution [2] [Kilos/100 Kilo solution]	solubility in water [2]	Molecule
175 g/100 g H2O	80.5	about 80%	OC[C@@H](O)[C@@H](O[C@H]1O[C@@H](CO)[C@@H](O)[C@@H](O)[C@H]1O)[C@H](O)[C@@H](O)CO [Maltitol]
	82		OC[C@@H](O)[C@@H](O[C@@H]1O[C@H](CO)[C@H](O)[C@H](O)[C@H]1O)[C@H](O)[C@@H](O)CO [Lactitol]
Soluble			OCC(O)CO [Glycerin]
22 g/100 g H2O	47.3	about 47%	OC[C@@H](O)[C@@H](O)[C@H](O)[C@H](O)CO [Mannitol]
	71		Isomalt
200 g/100 g H2O			OC[C@@H](O)[C@H](O)[C@@H](O)CO [Xylitol]
235 g/100 g H2O	92	about 92%	OC[C@@H](O)[C@@H](O)[C@H](O)[C@@H](O)CO [Sorbitol]
140 g/100 g H2O			OC[C@@H](O)[C@@H](O[C@@H]1O[C@H](CO)[C@H](O)[C@H](O)[C@H]1O)[C@H](O)[C@@H](O)CO [Lactitol Monohydrate]
185 g/100 g H2O			OC[C@H]1O[C@@](CO)(O[C@H]2O[C@H](CO)[C@@H](O)[C@H](O)[C@H]2O)[C@@H](O)[C@@H]1O [Sucrose]
39 g/100 g H2O			Anhydrous Isomalt
61 g/100 g H2O			OC[C@@H](O)[C@@H](O)CO [Erythritol]

Molecule	Solubility At 25 (g/100 g H2O) [1]	80° C. Solubility Kilos/100 Kilo solution [2] [Kilos/100 Kilo solution]	solubility in water [2]
O=C(CO)[C@@H](O)[C@H](O)[C@H](O)CO [Fructose]	400 g/100 g H2O		
